Structures are written as SMILES. Structures can show the parent of a compound that is named as a salt.

The results in this text go back to US20070049593A1 (priority 2004, published 2007).

The experiment concerns the target T1, HCV polymerase (Hepatitis C virus genotype 1b, UniProt P26663).
T1 construct: a region encoding NS5B (J Virol 1991 March, 65(3), 1105-13, 544 amino acids after deletion of 47 amino acids on the C-terminal); 6xHis (C); made in house; host or cells: Escherichia coli
Kind of experiment: biochemical. On the set-up: species or system HCV BK strain. The procedure, abridged: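 His-tagged NS5B (BK strain, 47-aa C-terminal deletion, E. coli-expressed) at 0.5 μg/ml copied 5 μg/ml run-off RNA bearing the HCV 3′ UTR with 2 μM UTP plus [3H]UTP, 50 μM ATP/GTP, in pH 7.5 Tris with 5 mM MgCl2, 25 °C, 90 min. TCA-precipitated RNA was counted and IC50 calculated.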

T1 sequence (P26663 2420-2963): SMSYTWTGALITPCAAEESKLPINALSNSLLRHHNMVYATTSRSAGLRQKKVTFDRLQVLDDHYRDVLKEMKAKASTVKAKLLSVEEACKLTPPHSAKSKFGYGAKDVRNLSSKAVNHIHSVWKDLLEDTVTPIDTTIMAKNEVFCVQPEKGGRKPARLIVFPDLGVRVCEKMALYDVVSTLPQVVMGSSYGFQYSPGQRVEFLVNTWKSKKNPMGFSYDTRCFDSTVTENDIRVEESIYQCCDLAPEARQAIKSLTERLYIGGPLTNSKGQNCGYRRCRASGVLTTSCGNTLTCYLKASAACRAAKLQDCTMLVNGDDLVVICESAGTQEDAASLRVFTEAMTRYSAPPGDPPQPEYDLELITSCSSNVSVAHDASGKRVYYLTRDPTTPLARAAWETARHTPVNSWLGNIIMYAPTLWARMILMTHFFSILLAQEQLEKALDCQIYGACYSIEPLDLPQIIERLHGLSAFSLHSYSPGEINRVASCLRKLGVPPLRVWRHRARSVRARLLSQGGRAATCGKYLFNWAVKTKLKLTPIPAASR

By IC50 is commonly meant the concentration that inhibits the measured activity by half. As for `Cc1ccc2c(c1)N(CCN1CCC[C@@H](CCC(=O)N(C)C)C1)CCn1c-2c(C2CCCCC2)c2ccc(C(=O)O)cc21` [Example 1-537, 13-cyclohexyl-5-{2-[(S)-3-(2-dimethylcarbamoylethyl)piperidin-1-yl]ethyl}-3-methyl-6,7-dihydro-5H-benzo[5,6][1,4]diazepino[7,1-a]indole-10-carboxylic acid dihydrochloride], the IC50 was less than 100 nM.

The compound `COc1ccc2c(c1)OCCn1c-2c(C2CCCCC2)c2ccc(C(=O)NC3(C(=O)Nc4ccc5oc(=O)ccc5c4)CCC3)cc21` [Example 2-541, N-[1-(2-oxo-2H-chromen-6-ylcarbamoyl)cyclobutyl]-12-cyclohexyl-3-methoxy-6,7-dihydro-5-oxa-7a-azadibenzo[a,e]azulene-9-carboxamide] registered an IC50 of less than 100 nM. To `O=C(O)c1ccc2c(C3CCCCC3)c3n(c2c1)CCCc1ccccc1-3` [Example 5-2, 13-cyclohexyl-6,7-dihydro-5H-benzo[3,4]azepino[1,2-a]indole-10-carboxylic acid] belongs less than 100 nM; to `COc1cccc(COc2ccc3c(c2)N(CCN(C)C)CCn2c-3c(C3CCCCC3)c3ccc(C(=O)O)cc32)c1` [Example 1-577, 13-cyclohexyl-5-(2-dimethylaminoethyl)-3-(3-methoxybenzyloxy)-6,7-dihydro-5H-benzo[5,6][1,4]diazepino[7,1-a]indole-10-carboxylic acid dihydrochloride], less than 100 nM.
